Measurements: patent publication US20130224236A1, “HSV-1 EPITOPES AND METHODS FOR USING SAME” (UNIVERSITY OF WASHINGTON, priority 2010, published 2013)

B1: UL40: HSV-1 protein UL40 (protein)
chain: MDSAAPALSPALTALTDQSATADLAIQIPKCPDPERYFYTSQCPDINHLRSLSILNRWLETELVFVGDEEDVSKLSEGELSFYRFLFAFLSAADDLVTENLGGLSGLFEQKDILHYYVEQECIEVVHSRVYNIIQLVLFHNNDQARREYVAGTINHPAIRAKVDWLEARVRECASVPEKFILMILIEGIFFAASFAAIAYLRTNNLLRVTCQSNDLISRDEAVHTTASCYIYNNYLGGHAKPPPDRVYGLFRQAVEIEIGFIRSQAPTDSHILSPAALAAIENYVRFSADRLLGLIHMKPLFSAPPPDASFPLSLMSTDKHTNFFECRSTSYAGAVVNDL
modifications: human herpesvirus 1
notes: HSV-1 protein UL40
B2: UL21: HSV-1 protein UL21 (protein)
chain: MELSYATTMHYRDVVFYVTTDRNRAYFVCGGCVYSVGRPCASQPGEIAKFGLVVRGTGPDDRVVANYVRSELRQRGLQDVRPIGEDEVFLDSVCLLNPNVSSELDVINTNDVEVLDECLAEYCTSLRTSPGVLISGLRVRAQDRIIELFEHPTIVNVSSHFVYTPSPYVFALAQAHLPRLPSSLEALVSGLFDGIPAPRQPLDAHNPRTDVVITGRRAPRPIAGSGAGSGGAGAKRATVSEFVQVKHIDRVGPAGVSPAPPPNNTDSSSLVPGAQDSAPPGPTLRELWWVFYAADRALEEPRADSGLTREEVRAVRGFREQAWKLFGSAGAPRAFIGAALGLSPLQKLAVYYYIIHRERRLSPFPALVRLVGRYTQRHGLYVPRPDDPVLADAINGLFRDALAAGTTAEQLLMFDLLPPKDVPVGSDVQADSTALLRFIESQRLAVPGGVISPEHVAYLGAFLSVLYAGRGRMSAATHTARLTGVTSLVLAVGDVDRLSAFDRGAAGAASRTRAAGYLDVLLTVRLARSQHGQSV
modifications: human herpesvirus 1
notes: HSV-1 protein UL21
B3: UL53: HSV-1 protein UL53/Glycoprotein K (protein)
chain: MLAVRSLQHLSTVVLITAYGLVLVWYTVFGASPLHRCIYAVRPTGTNNDTALVWMKMNQTLLFLGAPTHPPNGGWRNHAHICYANLIAGRVVPFQVPPDAMNRRIMNVHEAVNCLETLWYTRVRLVVVGWFLYLAFVALHQRRCMFGVVSPAHKMVAPATYLLNYAGRIVSSVFLQYPYTKITRLLCELSVQRQNLVQLFETDPVTFLYHRPAIGVIVGCELMLRFVAVGLIVGTAFISRGACAITYPLFLTITTWCFVSTIGLTELYCILRRGPAPKNADKAAAPGRSKGLSGVCGRCCSIILSGIAVRLCYIAVVAGVVLVALHYEQEIQRRLFDV
modifications: human herpesvirus 1
notes: HSV-1 protein UL53/Glycoprotein K
B4: US1/1.5: HSV-1 protein US1/ICP22 (protein)
chain: MADISPGAFAPCVKARRPALRSPPLGTRKRKRPSRPLSSESEVESDTALESEVESETASDSTESGDQDEAPRIGGRRAPRRLGGRFFLDMSAESTTGTETDASVSDDPDDTSDWSYDDIPPRPKRARVNLRLTSSPDRRDGVIFPKMGRVRSTRETQPRAPTPSAPSPNAMLRRSVRQAQRRSSARWTPDLGYMRQCINQLFRVLRVARDPHGSANRLRHLIRDCYLMGYCRARLAPRTWCRLLQVSGGTWGMHLRNTIREVEARFDATAEPVCKLPCLETRRYGPECDLSNLEIHLSATSDDEISDATDLEAAGSDHTLASQSDTEDAPSPVTLETPEPRGSLAVRLEDEFGEFDWTPQEGSQPWLSAVVADTSSVERPGPSDSGAGRAAEDRKCLDGCRKMRFSTACPYPCSDTFLRP
modifications: human herpesvirus 1
notes: HSV-1 protein US1/ICP22
B5: UL39: HSV-1 UL39/ICP6/10, large subunit of ribonucleotide reductase (protein)
chain: MASRPAASSPVEARAPVGGQEAGGPSAATQGEAAGAPLAHGHHVYCQRVNGVMVLSDKTPGSASYRISDNNFVQCGSNCTMIIDGDVVRGRPQDPGAAASPAPFVAVTNIGAGSDGGTAVVAFGGTPRRSAGTSTGTQTADVPTEALGGPPPPPRFTLGGGCCSCRDTRRRSAVFGGEGDPVGPAEFVSDDRSSDSDSDDSEDTDSETLSHASSDVSGGATYDDALDSDSSSDDSLQIDGPVCRPWSNDTAPLDVCPGTPGPGADAGGPSAVDPHAPTPEAGAGLAADPAVARDDAEGLSDPRPRLGTGTAYPVPLELTPENAEAVARFLGDAVNREPALMLEYFCRCAREETKRVPPRTFGSPPRLTEDDFGLLNYALVEMQRLCLDVPPVPPNAYMPYYLREYVTRLVNGFKPLVSRSARLYRILGVLVHLRIRTREASFEEWLRSKEVALDFGLTERLREHEAQLVILAQALDHYDCLIHSTPHTLVERGLQSALKYEEFYLKRFGGHYMESVFQMYTRIAGFLACRATRGMRHIALGREGSWWEMFKFFFHRLYDHQIVPSTPAMLNLGTRNYYTSSCYLVNPQATTNKATLRAITSNVSAILARNGGIGLCVQAFNDSGPGTASVMPALKVLDSLVAAHNKESARPTGACVYLEPWHTDVRAVLRMKGVLAGEEAQRCDNIFSALWMPDLFFKRLIRHLDGEKNVTWTLFDRDTSMSLADFHGEEFEKLYQHLEVMGFGEQIPIQELAYGIVRSAATTGSPFVMFKDAVNRHYIYDTQGAAIAGSNLCTEIVHPASKRSSGVCNLGSVNLARCVSRQTFDFGRLRDAVQACVLMVNIMIDSTLQPTPQCTRGNDNLRSMGIGMQGLHTACLKLGLDLESAEFQDLNKHIAEVMLLSAMKTSNALCVRGARPFNHFKRSMYRAGRFHWERFPDARPRYEGEWEMLRQSMMKHGLRNSQFVALMPTAASAQISDVSEGFAPLFTNLFSKVTRDGETLRPNTLLLKELERTFSGKRLLEVMDSLDAKQWSVAQALPCLEPTHPLRRFKTAFDYDQKLLIDLCADRAPYVDHSQSMTLYVTEKADGTLPASTLVRLLVHAYKRGLKTGMYYCKVRKATNSGVFGGDDNIVCMSCAL
modifications: human herpesvirus 1
notes: HSV-1 UL39/ICP6/10, large subunit of ribonucleotide reductase
B6: UL13: HSV-1 protein UL13 (protein)
chain: MDESRRQRPAGHVAANLSPQGARQRSFKDWLASYVHSNPHGASGRPSGPSLQDAAVSRSSHGSRHRSGLRERLRAGLSRWRMSRSSHRRASPETPGTAAKLNRPPLRRSQAALTAPPSSPSHILTLTRIRKLCSPVFAINPALHYTTLEIPGARSFGGSGGYGDVQLIREHKLAVKTIKEKEWFAVELIATLLVGECVLRAGRTHNIRGFIAPLGFSLQQRQIVFPAYDMDLGKYIGQLASLRTTNPSVSTALHQCFTELARAVVFLNTTCGISHLDIKCANILVMLRSDAVSLRRAVLADFSLVTLNSNSTIARGQFCLQEPDLKSPRMFGMPTALTTANFHTLVGHGYNQPPELLVKYLNNERAEFTNHRLKHDVGLAVDLYALGQTLLELVVSVYVAPSLGVPVTRFPGYQYFNNQLSPDFALALLAYRCVLHPALFVNSAETNTHGLAYDVPEGIRRHLRNPKIRRAFTDRCINYQHTHKAILSSVALPPELKPLLVLVSRLCHTNPCARHALS
modifications: human herpesvirus 1
notes: HSV-1 protein UL13

How the values were obtained:
[1] = tested on: bulk polyclonal CD8 effector cells; test: ORFeome CD8 screen: IFN-γ ELISA after adding CD8 responders to Cos-7 aAPC co-transfected with HLA class I cDNA and HSV-1 ORF; assay type: cell-based, human; settings: for CD8 IFN-γ responses to HSV-1 polypeptide (ORF level): amongst the 7 participants, HLA A, B, C screens; for HLA A*0101-bearing donors with CD8 T cells recognizing the ORF: primary co-transfection screens with shared HLA cDNA; for CD8 reactivity restricted by HLA A*0101: participant 1
[2] = tested on: CD4+ clone 9447.28 specific for HSV-1 VP22 AA 199-211; test: 3H thymidine proliferation check of expressed VP22 with a CD4 T-cell clone; assay type: cell-based, human; settings: pEXP203 in vitro expressed protein
Protocol: For expression, pEXP203 plasmids were prepared from a 3 ml ampicillin culture of transformed E. coli using a silica method (Qiagen) and mass determined by spectrophotometry. Protein expression used 50 μl volumes of the Expressionway E. coli system (Invitrogen). To check expression, 1 μl of reaction product was spotted onto nitrocellulose membranes (Whatman, Piscataway, N.J.), air-dried, blocked with 1% blocking reagent (Roche) diluted in TBS (50 mM Tris, 150 mM NaCl, pH 7.5), probed with anti-6-His mAb (Roche) diluted 1:500 in TBS-0.1% Tween −20 (TBS-T) (Roche), washed with TBS-T, incubated with horseradish peroxidase-conjugated anti-mouse IgG (Promega) diluted 1:2500 in TBS-T, washed with TBS-T, and developed with TMB substrate (Promega). Proteins failing to display a spot indicating anti-6-His binding were re-synthesized. For HSV-1 protein VP22 (gene UL49), expression was checked by triplicate, 3-day ^3H thymidine proliferation assay using cornea-derived CD4+ clone 9447.28 specific for HSV-1 VP22 AA 199-211 (18) as responders (2×10^4/well), autologous 3,300 rad γ-irradiated PBMC as APC (10^5/well), and HSV-1 VP22 or controls expressed in the pEXP203 system.
We expressed proteins covering the large majority of the HSV-1 proteome using an in vitro bacterial expression system.

| Molecule | CD8 IFN-γ responses to HSV-1 polypeptide (ORF level) [1] | other results |
| --- | --- | --- |
| UL1: HSV-1 protein UL1/Glycoprotein L | elicit CD8 IFN-γ responses | HLA A*0101-bearing donors with CD8 T cells recognizing the ORF [1]: each HLA A*0101-bearing donor |
| RS1/ICP4: HSV-1 protein RS1/ICP4 | elicit CD8 IFN-γ responses | CD8 IFN-γ responses to HSV-1 polypeptide (ORF level) ([1]; listed as ICP4): detected |
| UL37: HSV-1 protein UL37/ICP32 | elicit CD8 IFN-γ responses | – |
| UL29: HSV-1 protein UL29/ICP8 | elicit CD8 IFN-γ responses | – |
| UL41: HSV-1 protein UL41/vhs | elicit CD8 IFN-γ responses | – |
| UL47: HSV-1 protein UL47/VP13/14 | elicit CD8 IFN-γ responses | – |
| UL25: HSV-1 protein UL25 | elicit CD8 IFN-γ responses | – |
| UL48: HSV-1 protein UL48/VP16/ICP25 | elicit CD8 IFN-γ responses | CD8 reactivity restricted by HLA A*0101 [1]: strong reactivity; HLA A*0101-bearing donors with CD8 T cells recognizing the ORF [1]: each HLA A*0101-bearing donor |
| UL49: HSV-1 protein UL49/VP22 | elicit CD8 IFN-γ responses | responses of VP22-specific CD4 T-cell clone to expressed protein [2]: strong, specific responses |
| RL2/ICP0: HSV-1 protein RL2/ICP0 | elicit CD8 IFN-γ responses | CD8 IFN-γ responses to HSV-1 polypeptide (ORF level) ([1]; listed as ICP0): detected |
| UL31: HSV-1 protein UL31 | elicit CD8 IFN-γ responses | – |
| UL54: HSV-1 protein UL54 ICP27 | elicit CD8 IFN-γ responses | – |
| US7: HSV-1 protein US7/Glycoprotein I | elicit CD8 IFN-γ responses | – |
| B1 | elicit CD8 IFN-γ responses | – |
| B2 | elicit CD8 IFN-γ responses | – |
| B3 | elicit CD8 IFN-γ responses | – |
| B4 | elicit CD8 IFN-γ responses | CD8 IFN-γ responses to HSV-1 polypeptide (ORF level) ([1]; listed as ICP22): detected |
| B5 | elicit CD8 IFN-γ responses | number of distinct restricting HLA alleles ([1]; CD8 recognition): 7; number of persons with CD8 recognition of the ORF ([1]; of 7 persons): 6; number of HLA-level screens in which the ORF was recognized ([1]; of 39 screens): 11; CD8 reactivity restricted by HLA A*0101 [1]: strong reactivity |
| B6 | elicit CD8 IFN-γ responses | – |
